How the values were obtained:
[1] = molecular target: T1, JAK2 (a.a. 828-1132) catalytic domain (Homo sapiens, UniProt O60674); experiment: In vitro JAK kinase assay (HTRF, phosphorylation of biotinylated peptide), JAK2; type: biochemical; details: Table A; ATP 1 mM
T1 construct: JAK2 (a.a. 828-1132); His tag (N); made in house; host or cells: insect cells (baculovirus)
Description: Compounds herein were tested for inhibitory activity of JAK targets according to the following in vitro assay described in Park et al., Analytical Biochemistry 1999, 269, 94-104. The catalytic domains of human JAK1 (a.a. 837-1142) and JAK2 (a.a. 828-1132) with an N-terminal His tag were expressed using baculovirus in insect cells and purified. The catalytic activity of JAK1 and JAK2 was assayed by measuring the phosphorylation of a biotinylated peptide. The phosphorylated peptide was detected by homogenous time resolved fluorescence (HTRF). […] For the 1 mM IC50 measurements, ATP concentration in the reactions was 1 mM. Reactions were carried out at room temperature for 1 hour and then stopped with 20 μL 45 mM EDTA, 300 nM SA-APC, 6 nM Eu-Py20 in assay buffer (Perkin Elmer, Boston, Mass.). Binding to the Europium labeled antibody took place for 40 minutes and HTRF signal was measured on a Fusion plate reader (Perkin Elmer, Boston, Mass.). See Tables A and B for data related to compounds of the invention (at 1 mM). Data is indicated as ranges, wherein “+” is less than 5 nM; “++” is 5 nM to 25 nM; “+++” is greater than 25 nM to 100 nM; and “++++” is greater than 100 nM.

[2] = molecular target: T2, human JAK1 (a.a. 837-1142) catalytic domain (Homo sapiens, UniProt P23458); experiment: In vitro JAK kinase assay (HTRF, phosphorylation of biotinylated peptide), JAK1; type: biochemical; details: Table A; ATP 1 mM
T2 construct: human JAK1 (a.a. 837-1142); His tag (N); made in house; host or cells: insect cells (baculovirus)
T2 sequence (P23458 849-1154): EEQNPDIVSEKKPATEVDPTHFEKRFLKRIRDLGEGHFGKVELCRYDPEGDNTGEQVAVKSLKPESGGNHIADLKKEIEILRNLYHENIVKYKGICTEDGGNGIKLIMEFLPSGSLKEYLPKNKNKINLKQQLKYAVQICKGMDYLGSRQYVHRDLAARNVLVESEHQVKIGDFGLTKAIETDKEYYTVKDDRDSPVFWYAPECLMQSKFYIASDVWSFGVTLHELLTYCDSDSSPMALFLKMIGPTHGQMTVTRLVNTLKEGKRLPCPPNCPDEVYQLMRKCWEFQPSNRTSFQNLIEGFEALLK
Description: Compounds herein were tested for inhibitory activity of JAK targets according to the following in vitro assay described in Park et al., Analytical Biochemistry 1999, 269, 94-104. The catalytic domains of human JAK1 (a.a. 837-1142) and JAK2 (a.a. 828-1132) with an N-terminal His tag were expressed using baculovirus in insect cells and purified. The catalytic activity of JAK1 and JAK2 was assayed by measuring the phosphorylation of a biotinylated peptide. The phosphorylated peptide was detected by homogenous time resolved fluorescence (HTRF). […] For the 1 mM IC50 measurements, ATP concentration in the reactions was 1 mM. Reactions were carried out at room temperature for 1 hour and then stopped with 20 μL 45 mM EDTA, 300 nM SA-APC, 6 nM Eu-Py20 in assay buffer (Perkin Elmer, Boston, Mass.). Binding to the Europium labeled antibody took place for 40 minutes and HTRF signal was measured on a Fusion plate reader (Perkin Elmer, Boston, Mass.). […] Data is indicated as ranges, wherein “+” is less than 5 nM; “++” is 5 nM to 25 nM; “+++” is greater than 25 nM to 100 nM; and “++++” is greater than 100 nM.

T1 sequence (O60674 828-1132): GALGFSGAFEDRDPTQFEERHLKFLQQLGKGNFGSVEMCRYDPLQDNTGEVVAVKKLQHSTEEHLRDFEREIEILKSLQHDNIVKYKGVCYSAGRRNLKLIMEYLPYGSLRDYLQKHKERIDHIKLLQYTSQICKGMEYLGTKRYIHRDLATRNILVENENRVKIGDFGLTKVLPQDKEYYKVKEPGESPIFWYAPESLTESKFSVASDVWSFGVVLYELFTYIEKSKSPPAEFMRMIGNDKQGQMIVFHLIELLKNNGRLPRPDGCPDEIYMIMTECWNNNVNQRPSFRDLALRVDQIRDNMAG

IC50 [1] [nM] | IC50 [2] [nM] | SMILES
5 to 25 | < 5 | N#CCC(CN1CCC(Oc2cc(F)cc(C(=O)N3CCOCC3)c2)CC1)n1cc(-c2ncnc3[nH]ccc23)cn1 (stereo not drawn) [Example 18, 4-{4-[3-Fluoro-5-(morpholin-4-ylcarbonyl)phenoxy]piperidin-1-yl}-3-[4-(7H-pyrrolo[2,3-d]pyrimidin-4-yl)-1H-pyrazol-1-yl]butanenitrile]
5 to 25 | < 5 | N#CCC(CN1CCC(Oc2cc(F)cc(C(=O)N3CCC(F)(F)C3)c2)CC1)n1cc(-c2ncnc3[nH]ccc23)cn1 (stereo not drawn) [Example 19, 4-(4-{3-[(3,3-Difluoropyrrolidin-1-yl)carbonyl]-5-fluorophenoxy}piperidin-1-yl)-3-[4-(7H-pyrrolo[2,3-d]pyrimidin-4-yl)-1H-pyrazol-1-yl]butanenitrile]
> 100 | < 5 | CN(Cc1cc(F)cc(OC2CCN(CC(CC#N)n3cc(-c4ncnc5[nH]ccc45)cn3)CC2)c1)C1CC1 (stereo not drawn) [Example 21, 4-[4-(3-{[cyclopropyl(methyl)amino]methyl}-5-fluorophenoxy)piperidin-1-yl]-3-[4-(7H-pyrrolo[2,3-d]pyrimidin-4-yl)-1H-pyrazol-1-yl]butanenitrile]
25 to 100 | < 5 | N#CCC(CN1CCC(Oc2cc(F)cc(CN3CCC3)c2)CC1)n1cc(-c2ncnc3[nH]ccc23)cn1 (stereo not drawn) [Example 22]
25 to 100 | 5 to 25 | N#CCC(CN1CCC(Oc2cc(F)cc(CNC3CCC3)c2)CC1)n1cc(-c2ncnc3[nH]ccc23)cn1 (stereo not drawn) [Example 23, 4-(4-{3-[(cyclobutylamino)methyl]-5-fluorophenoxy}piperidin-1-yl)-3-[4-(7H-pyrrolo[2,3-d]pyrimidin-4-yl)-1H-pyrazol-1-yl]butanenitrile tetrakis(trifluoroacetate)]
25 to 100 | < 5 | N#CCC(CN1CCC(Oc2cc(F)cc(CN3CCCC3)c2)CC1)n1cc(-c2ncnc3[nH]ccc23)cn1 (stereo not drawn) [Example 24, 4-{4-[3-fluoro-5-(pyrrolidin-1-ylmethyl)phenoxy]piperidin-1-yl}-3-[4-(7H-pyrrolo[2,3-d]pyrimidin-4-yl)-1H-pyrazol-1-yl]butanenitrile tetrakis(trifluoroacetate)]
5 to 25 | < 5 | N#CCC(CN1CCC(Oc2cc(F)cc(CN3CCCCC3)c2)CC1)n1cc(-c2ncnc3[nH]ccc23)cn1 (stereo not drawn) [Example 25, 4-{4-[3-fluoro-5-(piperidin-1-ylmethyl)phenoxy]piperidin-1-yl}-3-[4-(7H-pyrrolo[2,3-d]pyrimidin-4-yl)-1H-pyrazol-1-yl]butanenitrile]
> 100 | 5 to 25 | N#CCC(CN1CCC(Oc2cc(F)cc(CN3CCOCC3)c2)CC1)n1cc(-c2ncnc3[nH]ccc23)cn1 (stereo not drawn) [Example 26, 4-{4-[3-fluoro-5-(morpholin-4-ylmethyl)phenoxy]piperidin-1-yl}-3-[4-(7H-pyrrolo[2,3-d]pyrimidin-4-yl)-1H-pyrazol-1-yl]butanenitrile]
> 100 | 5 to 25 | N#CCC(CN1CCC(Oc2cc(F)cc(CN3CCC(F)(F)C3)c2)CC1)n1cc(-c2ncnc3[nH]ccc23)cn1 (stereo not drawn) [Example 27, 4-(4-{3-[(3,3-difluoropyrrolidin-1-yl)methyl]-5-fluorophenoxy}piperidin-1-yl)-3-[4-(7H-pyrrolo[2,3-d]pyrimidin-4-yl)-1H-pyrazol-1-yl]butanenitrile]
25 to 100 | < 5 | C[C@@H]1CCCN1Cc1cc(F)cc(OC2CCN(CC(CC#N)n3cc(-c4ncnc5[nH]ccc45)cn3)CC2)c1 (stereo partly drawn) [Example 28, 4-[4-(3-fluoro-5-{[(2R)-2-methylpyrrolidin-1-yl]methyl}phenoxy)piperidin-1-yl]-3-[4-(7H-pyrrolo[2,3-d]pyrimidin-4-yl)-1H-pyrazol-1-yl]butanenitrile]
25 to 100 | < 5 | C[C@H]1CCCN1Cc1cc(F)cc(OC2CCN(CC(CC#N)n3cc(-c4ncnc5[nH]ccc45)cn3)CC2)c1 (stereo partly drawn) [Example 29, 4-[4-(3-fluoro-5-{[(2S)-2-methylpyrrolidin-1-yl]methyl}phenoxy)piperidin-1-yl]-3-[4-(7H-pyrrolo[2,3-d]pyrimidin-4-yl)-1H-pyrazol-1-yl]butanenitrile]
25 to 100 | 5 to 25 | COCCNCc1cc(F)cc(OC2CCN(CC(CC#N)n3cc(-c4ncnc5[nH]ccc45)cn3)CC2)c1 (stereo not drawn) [Example 30, 4-[4-(3-fluoro-5-{[(2-methoxyethyl)amino]methyl}phenoxy)piperidin-1-yl]-3-[4-(7H-pyrrolo[2,3-d]pyrimidin-4-yl)-1H-pyrazol-1-yl]butanenitrile]

Reference: US9034884B2, “Heterocyclic-substituted pyrrolopyridines and pyrrolopyrimidines as JAK inhibitors” (Incyte Corporation, priority 2010, dated 2015)
